Experimental data from publication PMC11480411, “Mucosal sugars delineate pyrazine vs pyrazinone autoinducer signaling in Klebsiella oxytoca” (Nature Communications, 2024).

How the values were obtained:
Assay in all cases: PRESTO-Tango GPCR screen
Type in all cases: cell-based
Settings in all cases: 100 µM
[1] = target: T1, GCGR (Homo sapiens, UniProt P47871)
T1 construct: purchased PRESTO-Tango GPCR kit (Roth lab / Addgene)
Procedure, shortened: (§1)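 HTLA cells (HEK293 stably expressing β-arrestin-TEV and tTA-luciferase) were transiently transfected with GPCR-Tango plasmids using polyethylenimine. After 16-24 h they were stimulated with compound at 100 μM final for 20 h. Luminescence was read with Bright-Glo and expressed as fold activation over PBS control.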

[2] = target: T2, PTGER2 (Homo sapiens, UniProt P43116)
T2 construct: purchased PRESTO-Tango GPCR kit (Roth lab / Addgene)
Procedure, shortened: as §1

[3] = target: T3, LHCGR (Homo sapiens, UniProt P22888)
T3 construct: purchased PRESTO-Tango GPCR kit (Roth lab / Addgene)
Procedure, shortened: as §1

[4] = target: T4, GPR1 (Homo sapiens, UniProt P46091)
T4 construct: purchased PRESTO-Tango GPCR kit (Roth lab / Addgene)
Procedure, shortened: as §1

[5] = target: T5, OPRL1 (Homo sapiens, UniProt P41146)
T5 construct: purchased PRESTO-Tango GPCR kit (Roth lab / Addgene)
Procedure, shortened: as §1

[6] = target: T6, GPR18 (Homo sapiens, UniProt Q14330)
T6 construct: purchased PRESTO-Tango GPCR kit (Roth lab / Addgene)
Procedure, shortened: as §1

[7] = target: T7, GAL1 (Homo sapiens, UniProt P47211)
T7 construct: purchased PRESTO-Tango GPCR kit (Roth lab / Addgene)
Procedure, shortened: as §1

[8] = target: T8, FFA3 (Homo sapiens, UniProt O14843)
T8 construct: purchased PRESTO-Tango GPCR kit (Roth lab / Addgene)
Procedure, shortened: as §1

[9] = target: T9, CXCR5 (Homo sapiens, UniProt P32302)
T9 construct: purchased PRESTO-Tango GPCR kit (Roth lab / Addgene)
Procedure, shortened: as §1

[10] = target: T10, C3AR1 (Homo sapiens, UniProt Q16581)
T10 construct: purchased PRESTO-Tango GPCR kit (Roth lab / Addgene)
Procedure, shortened: as §1

[11] = target: T11, GRM7 (Homo sapiens, UniProt Q14831)
T11 construct: purchased PRESTO-Tango GPCR kit (Roth lab / Addgene)
Procedure, shortened: as §1

[12] = target: T12, GPR15 (Homo sapiens, UniProt P49685)
T12 construct: purchased PRESTO-Tango GPCR kit (Roth lab / Addgene)
Procedure, shortened: as §1

[13] = target: T13, MCHR1 (Homo sapiens, UniProt Q99705)
T13 construct: purchased PRESTO-Tango GPCR kit (Roth lab / Addgene)
Procedure, shortened: as §1

[14] = target: T14, P2RY1 (Homo sapiens, UniProt P47900)
T14 construct: purchased PRESTO-Tango GPCR kit (Roth lab / Addgene)
Procedure, shortened: as §1

[15] = target: T15, NPFF2 (Homo sapiens, UniProt Q9Y5X5)
T15 construct: purchased PRESTO-Tango GPCR kit (Roth lab / Addgene)
Procedure, shortened: as §1

[16] = target: T16, QRFP (Homo sapiens, UniProt Q96P65)
T16 construct: purchased PRESTO-Tango GPCR kit (Roth lab / Addgene)
Procedure, shortened: as §1

[17] = target: T17, CCR7 (Homo sapiens, UniProt P32248)
T17 construct: purchased PRESTO-Tango GPCR kit (Roth lab / Addgene)
Procedure, shortened: as §1

[18] = target: T18, GPR65 (Homo sapiens, UniProt Q8IYL9)
T18 construct: purchased PRESTO-Tango GPCR kit (Roth lab / Addgene)
Procedure, shortened: as §1

[19] = target: T19, PTH2R (Homo sapiens, UniProt P49190)
T19 construct: purchased PRESTO-Tango GPCR kit (Roth lab / Addgene)
Procedure, shortened: as §1

[20] = target: T20, CALCRL (Homo sapiens, UniProt Q16602)
T20 construct: purchased PRESTO-Tango GPCR kit (Roth lab / Addgene)
Procedure, shortened: as §1

[21] = target: T21, PTGFR (Homo sapiens, UniProt P43088)
T21 construct: purchased PRESTO-Tango GPCR kit (Roth lab / Addgene)
Procedure, shortened: as §1

[22] = target: T22, P2RY8 (Homo sapiens, UniProt Q86VZ1)
T22 construct: purchased PRESTO-Tango GPCR kit (Roth lab / Addgene)
Procedure, shortened: as §1

[23] = target: T23, GPR32 (Homo sapiens, UniProt O75388)
T23 construct: purchased PRESTO-Tango GPCR kit (Roth lab / Addgene)
Procedure, shortened: as §1

[24] = target: T24, SSTR3 (Homo sapiens, UniProt P32745)
T24 construct: purchased PRESTO-Tango GPCR kit (Roth lab / Addgene)
Procedure, shortened: as §1

[25] = target: T25, GPR146 (Homo sapiens, UniProt Q96CH1)
T25 construct: purchased PRESTO-Tango GPCR kit (Roth lab / Addgene)
Procedure, shortened: as §1

[26] = target: T26, GRPR (Homo sapiens, UniProt P30550)
T26 construct: purchased PRESTO-Tango GPCR kit (Roth lab / Addgene)
Procedure, shortened: as §1

[27] = target: T27, GPR142 (Homo sapiens, UniProt Q7Z601)
T27 construct: purchased PRESTO-Tango GPCR kit (Roth lab / Addgene)
Procedure, shortened: as §1

[28] = target: T28, P2RY11 (Homo sapiens, UniProt Q96G91)
T28 construct: purchased PRESTO-Tango GPCR kit (Roth lab / Addgene)
Procedure, shortened: as §1

[29] = target: T29, GPR62 (Homo sapiens, UniProt Q9BZJ7)
T29 construct: purchased PRESTO-Tango GPCR kit (Roth lab / Addgene)
Procedure, shortened: as §1

[30] = target: T30, RXFP1 (Homo sapiens, UniProt Q9HBX9)
T30 construct: purchased PRESTO-Tango GPCR kit (Roth lab / Addgene)
Procedure, shortened: as §1

[31] = target: T31, ADCYAP1R1 (Homo sapiens, UniProt P41586)
T31 construct: purchased PRESTO-Tango GPCR kit (Roth lab / Addgene)
Procedure, shortened: as §1

[32] = target: T32, GRM5 (Homo sapiens, UniProt P41594)
T32 construct: purchased PRESTO-Tango GPCR kit (Roth lab / Addgene)
Procedure, shortened: as §1

[33] = target: T33, SSTR4 (Homo sapiens, UniProt P31391)
T33 construct: purchased PRESTO-Tango GPCR kit (Roth lab / Addgene)
Procedure, shortened: as §1

[34] = target: T34, HTR1D (Homo sapiens, UniProt P28221)
T34 construct: purchased PRESTO-Tango GPCR kit (Roth lab / Addgene)
Procedure, shortened: as §1

[35] = target: T35, LPAR1 (Homo sapiens, UniProt Q92633)
T35 construct: purchased PRESTO-Tango GPCR kit (Roth lab / Addgene)
Procedure, shortened: as §1

[36] = target: T36, FFA1 (Homo sapiens, UniProt O14842)
T36 construct: purchased PRESTO-Tango GPCR kit (Roth lab / Addgene)
Procedure, shortened: as §1

T14 sequence (P47900 whole entry): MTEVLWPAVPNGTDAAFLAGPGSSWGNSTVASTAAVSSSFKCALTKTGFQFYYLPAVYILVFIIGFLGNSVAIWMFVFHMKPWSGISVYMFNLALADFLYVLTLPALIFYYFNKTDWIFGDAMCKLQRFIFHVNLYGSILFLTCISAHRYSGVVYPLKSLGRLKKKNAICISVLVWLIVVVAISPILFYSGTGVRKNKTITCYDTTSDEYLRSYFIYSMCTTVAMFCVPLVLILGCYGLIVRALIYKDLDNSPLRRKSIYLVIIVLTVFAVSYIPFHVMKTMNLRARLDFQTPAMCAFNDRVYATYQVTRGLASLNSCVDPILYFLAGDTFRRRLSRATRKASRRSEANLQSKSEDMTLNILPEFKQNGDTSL
T5 sequence (P41146 whole entry): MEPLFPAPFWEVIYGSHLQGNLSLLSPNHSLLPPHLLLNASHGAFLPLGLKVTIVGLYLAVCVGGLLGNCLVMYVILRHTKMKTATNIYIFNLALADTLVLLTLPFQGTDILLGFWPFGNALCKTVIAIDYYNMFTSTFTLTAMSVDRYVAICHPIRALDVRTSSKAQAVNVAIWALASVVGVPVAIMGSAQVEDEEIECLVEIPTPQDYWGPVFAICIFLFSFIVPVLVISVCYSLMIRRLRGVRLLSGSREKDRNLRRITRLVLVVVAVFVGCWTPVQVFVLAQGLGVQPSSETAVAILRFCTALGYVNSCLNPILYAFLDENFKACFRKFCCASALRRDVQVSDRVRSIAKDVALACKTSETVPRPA
T9 sequence (P32302 whole entry): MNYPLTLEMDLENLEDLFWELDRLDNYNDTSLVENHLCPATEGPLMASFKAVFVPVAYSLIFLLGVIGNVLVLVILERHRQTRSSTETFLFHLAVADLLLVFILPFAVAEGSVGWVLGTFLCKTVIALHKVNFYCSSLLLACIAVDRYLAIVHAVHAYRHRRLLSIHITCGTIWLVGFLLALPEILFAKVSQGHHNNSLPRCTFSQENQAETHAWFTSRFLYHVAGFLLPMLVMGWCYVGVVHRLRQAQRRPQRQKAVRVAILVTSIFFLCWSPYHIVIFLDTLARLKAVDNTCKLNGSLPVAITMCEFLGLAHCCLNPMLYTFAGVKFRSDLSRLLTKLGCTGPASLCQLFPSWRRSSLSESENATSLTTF
T1 sequence (P47871 26-477): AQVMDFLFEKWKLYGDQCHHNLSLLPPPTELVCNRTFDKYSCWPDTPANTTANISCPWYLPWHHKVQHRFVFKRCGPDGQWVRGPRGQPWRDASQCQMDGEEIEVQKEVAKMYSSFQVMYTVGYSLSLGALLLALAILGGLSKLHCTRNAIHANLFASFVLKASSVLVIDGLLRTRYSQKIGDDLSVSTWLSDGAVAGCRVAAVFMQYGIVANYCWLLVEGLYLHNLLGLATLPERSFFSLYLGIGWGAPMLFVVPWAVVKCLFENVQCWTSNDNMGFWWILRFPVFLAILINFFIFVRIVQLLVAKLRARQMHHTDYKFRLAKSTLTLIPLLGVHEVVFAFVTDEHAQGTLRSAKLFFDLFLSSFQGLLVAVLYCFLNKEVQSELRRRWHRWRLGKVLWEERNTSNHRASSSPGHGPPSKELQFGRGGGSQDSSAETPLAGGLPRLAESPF
T31 sequence (P41586 21-468): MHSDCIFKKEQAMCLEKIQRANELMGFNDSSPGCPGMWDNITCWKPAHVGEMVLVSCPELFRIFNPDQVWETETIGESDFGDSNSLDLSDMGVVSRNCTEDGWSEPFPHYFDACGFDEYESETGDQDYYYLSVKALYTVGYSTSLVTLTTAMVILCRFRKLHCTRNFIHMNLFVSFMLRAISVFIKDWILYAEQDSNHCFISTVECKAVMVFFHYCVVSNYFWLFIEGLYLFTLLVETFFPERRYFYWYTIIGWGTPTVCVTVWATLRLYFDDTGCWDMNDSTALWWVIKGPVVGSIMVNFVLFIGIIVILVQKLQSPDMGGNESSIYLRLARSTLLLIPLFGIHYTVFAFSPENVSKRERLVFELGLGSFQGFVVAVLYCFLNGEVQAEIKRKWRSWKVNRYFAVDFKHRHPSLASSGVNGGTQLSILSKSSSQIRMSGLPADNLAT
T8 sequence (O14843 whole entry): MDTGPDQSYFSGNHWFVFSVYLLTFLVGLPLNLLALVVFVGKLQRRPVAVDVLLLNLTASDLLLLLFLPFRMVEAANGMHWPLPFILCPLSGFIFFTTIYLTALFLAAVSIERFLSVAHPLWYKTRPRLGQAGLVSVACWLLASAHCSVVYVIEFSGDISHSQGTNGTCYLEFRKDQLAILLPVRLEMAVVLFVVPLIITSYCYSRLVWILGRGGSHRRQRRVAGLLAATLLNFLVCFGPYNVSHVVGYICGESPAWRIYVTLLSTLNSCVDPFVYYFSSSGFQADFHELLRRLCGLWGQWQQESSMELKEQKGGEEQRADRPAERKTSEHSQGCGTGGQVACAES
T28 sequence (Q96G91 whole entry, one chain of several): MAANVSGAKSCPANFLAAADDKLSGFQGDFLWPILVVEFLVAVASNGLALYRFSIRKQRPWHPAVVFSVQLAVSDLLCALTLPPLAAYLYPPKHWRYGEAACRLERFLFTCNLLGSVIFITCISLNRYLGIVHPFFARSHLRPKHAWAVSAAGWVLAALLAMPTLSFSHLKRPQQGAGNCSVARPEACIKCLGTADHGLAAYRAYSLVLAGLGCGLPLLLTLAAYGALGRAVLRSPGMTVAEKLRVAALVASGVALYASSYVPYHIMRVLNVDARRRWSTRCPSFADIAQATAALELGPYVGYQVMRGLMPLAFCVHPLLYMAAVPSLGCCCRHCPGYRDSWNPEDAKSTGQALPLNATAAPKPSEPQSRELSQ
T36 sequence (O14842 whole entry): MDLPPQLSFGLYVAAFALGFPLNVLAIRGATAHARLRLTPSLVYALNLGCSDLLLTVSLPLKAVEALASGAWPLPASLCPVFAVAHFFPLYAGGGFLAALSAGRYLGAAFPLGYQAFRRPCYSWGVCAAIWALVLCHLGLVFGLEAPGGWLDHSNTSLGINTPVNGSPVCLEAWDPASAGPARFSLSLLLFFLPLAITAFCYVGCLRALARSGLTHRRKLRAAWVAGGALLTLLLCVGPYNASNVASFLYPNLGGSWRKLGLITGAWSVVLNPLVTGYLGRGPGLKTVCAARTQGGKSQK
T35 sequence (Q92633 whole entry): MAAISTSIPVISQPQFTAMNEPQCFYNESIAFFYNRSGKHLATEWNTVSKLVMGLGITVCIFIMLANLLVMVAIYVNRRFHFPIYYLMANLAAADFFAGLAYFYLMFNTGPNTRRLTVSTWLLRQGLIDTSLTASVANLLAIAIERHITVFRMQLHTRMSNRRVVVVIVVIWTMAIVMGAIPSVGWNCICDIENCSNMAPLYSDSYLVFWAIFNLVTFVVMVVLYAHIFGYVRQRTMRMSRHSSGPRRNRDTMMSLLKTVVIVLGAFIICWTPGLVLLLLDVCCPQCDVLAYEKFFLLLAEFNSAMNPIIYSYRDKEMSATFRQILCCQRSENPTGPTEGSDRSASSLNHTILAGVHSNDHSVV
T22 sequence (Q86VZ1 whole entry): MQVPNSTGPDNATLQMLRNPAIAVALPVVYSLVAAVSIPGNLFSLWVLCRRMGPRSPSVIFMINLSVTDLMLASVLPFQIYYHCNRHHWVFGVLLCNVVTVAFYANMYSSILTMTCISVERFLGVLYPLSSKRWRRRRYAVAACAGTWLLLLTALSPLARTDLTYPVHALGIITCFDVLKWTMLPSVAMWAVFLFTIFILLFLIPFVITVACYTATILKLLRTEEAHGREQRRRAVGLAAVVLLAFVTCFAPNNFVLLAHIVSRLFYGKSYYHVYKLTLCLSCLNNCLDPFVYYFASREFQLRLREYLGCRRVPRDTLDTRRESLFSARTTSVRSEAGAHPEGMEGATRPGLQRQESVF
T16 sequence (Q96P65 whole entry): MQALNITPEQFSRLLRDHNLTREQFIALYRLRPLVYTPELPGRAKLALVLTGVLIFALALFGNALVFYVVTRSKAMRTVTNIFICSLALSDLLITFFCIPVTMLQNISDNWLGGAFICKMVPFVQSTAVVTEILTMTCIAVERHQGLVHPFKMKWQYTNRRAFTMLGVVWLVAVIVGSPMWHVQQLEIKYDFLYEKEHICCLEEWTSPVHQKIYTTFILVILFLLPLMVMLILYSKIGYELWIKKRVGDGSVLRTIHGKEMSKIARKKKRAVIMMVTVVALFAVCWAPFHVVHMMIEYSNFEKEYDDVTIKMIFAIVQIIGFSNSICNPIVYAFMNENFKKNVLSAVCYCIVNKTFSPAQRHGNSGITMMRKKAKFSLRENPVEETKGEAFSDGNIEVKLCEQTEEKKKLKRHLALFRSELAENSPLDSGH
T18 sequence (Q8IYL9 whole entry): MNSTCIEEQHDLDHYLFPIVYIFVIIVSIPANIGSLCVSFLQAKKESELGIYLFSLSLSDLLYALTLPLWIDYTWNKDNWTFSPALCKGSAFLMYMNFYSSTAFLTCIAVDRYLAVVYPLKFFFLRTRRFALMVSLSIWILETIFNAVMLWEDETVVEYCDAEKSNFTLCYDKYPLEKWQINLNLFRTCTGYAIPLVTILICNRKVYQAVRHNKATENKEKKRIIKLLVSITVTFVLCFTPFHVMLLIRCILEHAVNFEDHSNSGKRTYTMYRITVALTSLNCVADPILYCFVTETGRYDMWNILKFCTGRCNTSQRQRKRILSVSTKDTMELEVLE
T25 sequence (Q96CH1 whole entry): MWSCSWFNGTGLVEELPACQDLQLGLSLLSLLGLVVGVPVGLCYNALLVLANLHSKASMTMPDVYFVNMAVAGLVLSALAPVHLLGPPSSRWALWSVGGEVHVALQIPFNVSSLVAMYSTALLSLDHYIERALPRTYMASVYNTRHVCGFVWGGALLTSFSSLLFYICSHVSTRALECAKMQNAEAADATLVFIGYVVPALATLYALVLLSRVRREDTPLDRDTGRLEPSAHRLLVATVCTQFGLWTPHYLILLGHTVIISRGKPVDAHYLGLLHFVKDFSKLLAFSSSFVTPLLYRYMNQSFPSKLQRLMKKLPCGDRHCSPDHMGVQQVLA

Structure (SMILES)	GPCR activation (heatmap value) [1]	GPCR activation (heatmap value) [2]	GPCR activation (heatmap value) [3]	GPCR activation (heatmap value) [4]	GPCR activation (heatmap value) [5]	GPCR activation (heatmap value) [6]	GPCR activation (heatmap value) [7]	GPCR activation (heatmap value) [8]	GPCR activation (heatmap value) [9]	GPCR activation (heatmap value) [10]	GPCR activation (heatmap value) [11]	GPCR activation (heatmap value) [12]	GPCR activation (heatmap value) [13]	GPCR activation (heatmap value) [14]	GPCR activation (heatmap value) [15]	GPCR activation (heatmap value) [16]	GPCR activation (heatmap value) [17]	GPCR activation (heatmap value) [18]	GPCR activation (heatmap value) [19]	GPCR activation (heatmap value) [20]	further results
CC(C)Cc1ncc(CCCCNC(=N)N)[nH]c1=O [3-Homo]	0.3222	-0.3082	0.1782	0.03802	0.777	-0.3064	-0.2703	-0.4191	-0.9057	-0.001199	-0.0693	-0.3204	-1.3275	0.7917	-0.3895	0.525	-1.001	0.1433	-0.1142	1.281	GPCR activation (heatmap value) [21]: 0.3992; GPCR activation (heatmap value) [22]: 0.2867; GPCR activation (heatmap value) [23]: -0.1389; GPCR activation (heatmap value) [24]: 0.1422; GPCR activation (heatmap value) [25]: -0.8234; GPCR activation (heatmap value) [26]: -0.6902; GPCR activation (heatmap value) [27]: -0.286; GPCR activation (heatmap value) [28]: 0.1373; GPCR activation (heatmap value) [29]: 0.1938; GPCR activation (heatmap value) [30]: -0.5413; GPCR activation (heatmap value) [31]: 0.1231; GPCR activation (heatmap value) [32]: -0.9141; GPCR activation (heatmap value) [33]: 0.2411; GPCR activation (heatmap value) [34]: -0.01602; GPCR activation (heatmap value) [35]: -0.9265; GPCR activation (heatmap value) [36]: -0.171
CC(C)Cc1ncc(CCCNC(=N)N)[nH]c1=O [compound 3]	0.3476	-0.3243	0.1147	-0.7172	0.326	0.788	-0.09983	-0.2613	0.2848	-0.2058	0.04754	-0.8181	-0.2593	0.6628	-0.5121	0.1257	-2.336	-0.2267	-0.2039	-0.1816	GPCR activation (heatmap value) [21]: 0.901; GPCR activation (heatmap value) [22]: 0.4444; GPCR activation (heatmap value) [23]: 0.07937; GPCR activation (heatmap value) [24]: -0.3508; GPCR activation (heatmap value) [25]: -0.2269; GPCR activation (heatmap value) [26]: 0.1678; GPCR activation (heatmap value) [27]: -0.6317; GPCR activation (heatmap value) [28]: -0.4085; GPCR activation (heatmap value) [29]: 1.991; GPCR activation (heatmap value) [30]: -0.4212; GPCR activation (heatmap value) [31]: 0.214; GPCR activation (heatmap value) [32]: 0.02679; GPCR activation (heatmap value) [33]: -0.01818; GPCR activation (heatmap value) [34]: 0.2043; GPCR activation (heatmap value) [35]: -0.4869; GPCR activation (heatmap value) [36]: -0.7235
